From ChEMBL document CHEMBL1201862, “PubChem BioAssay data set” (2004)
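Cultured in 96-well plates, cells were exposed to test compound for 48 hours across five concentrations. Here, GI50 denotes the concentration required for 50% inhibition of growth.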 The source made the active and inactive calls. No stated cut-off is given here; in the data, active = GI50 up to about 1.1 µM and inactive = higher.

How the values were obtained:
Assay in all cases: NCI tumour cell line growth inhibition, 48 h
[1] = test system: SW-620
[2] = test system: MDA-N
[3] = test system: CAKI-1
[4] = test system: RPMI-8226
[5] = test system: LOX IMVI
[6] = test system: EKVX
[7] = test system: NCI-H522
[8] = test system: OVCAR-4
[9] = test system: A549
[10] = test system: SK-MEL-2
[11] = test system: MDA-MB-435
[12] = test system: SN12C
[13] = test system: CCRF-CEM
[14] = test system: M14
[15] = test system: K562
[16] = test system: RXF 393
[17] = test system: Malme-3M
[18] = test system: OVCAR-8
[19] = test system: SNB-75
[20] = test system: SK-MEL-5
[21] = test system: Hs-578T
[22] = test system: SR
[23] = test system: SK-MEL-28
[24] = test system: 786-0
[25] = test system: HOP-62
[26] = test system: T47D
[27] = test system: OVCAR-3
[28] = test system: MOLT-4
[29] = test system: HCT-116
[30] = test system: PC-3
[31] = test system: HOP-92
[32] = test system: U-251
[33] = test system: A498
[34] = test system: BT-549
[35] = test system: UACC-62
[36] = test system: SF-295
[37] = test system: UACC-257
[38] = test system: NCI/ADR-RES
[39] = test system: SNB-19
[40] = test system: SF-268
[41] = test system: MCF7
[42] = test system: HCT-15
[43] = test system: DU-145
[44] = test system: HT-29
[45] = test system: HCC 2998
[46] = test system: SF-539
[47] = test system: HL-60
[48] = test system: NCI-H226
[49] = test system: TK-10
[50] = test system: COLO 205
[51] = test system: ACHN
[52] = test system: MDA-MB-231
[53] = test system: IGROV-1
[54] = test system: KM12
[55] = test system: SK-OV-3
[56] = test system: OVCAR-5
[57] = test system: UO-31
[58] = test system: NCI-H23
[59] = test system: NCI-H460

`O=C(Nc1sccc1S(=O)(=O)c1ccc(Cl)cc1)c1ccc(F)cc1F` was tested, and the GI50 [1] was 73.1 µM (inactive), the GI50 [2] was > 100 µM (inactive) and the GI50 [3] was 26.2 µM (inactive). For the same molecule, the GI50 [4] was 62.8 µM (inactive), the GI50 [5] was > 100 µM (inactive) and the GI50 [6] was 19.6 µM (inactive). The GI50 [7] was 20.3 µM (inactive), the GI50 [8] was 21.2 µM (inactive) and the GI50 [9] was 48.2 µM (inactive). For the same molecule, the GI50 [10] was 18.9 µM (inactive), the GI50 [11] was > 100 µM (inactive) and the GI50 [12] was 56.8 µM (inactive). For the same molecule, the GI50 [13] was 19.2 µM (inactive), the GI50 [14] was > 100 µM (inactive) and the GI50 [15] was 18 µM (inactive). The GI50 [16] was 21.7 µM (inactive), the GI50 [17] was 31.9 µM (inactive) and the GI50 [18] was 30.9 µM (inactive). The GI50 [19] was 19.3 µM (inactive), the GI50 [20] was 49.4 µM (inactive) and the GI50 [21] was 26.2 µM (inactive). For the same molecule, the GI50 [22] was 18.2 µM (inactive), the GI50 [23] was > 100 µM (inactive) and the GI50 [24] was 18.7 µM (inactive). For the same molecule, the GI50 [25] was 24.9 µM (inactive), the GI50 [26] was 31.8 µM (inactive) and the GI50 [27] was 37.4 µM (inactive). For the same molecule, the GI50 [28] was 20.4 µM (inactive), the GI50 [29] was 45.8 µM (inactive) and the GI50 [30] was 27.2 µM (inactive). The GI50 [31] was 19.5 µM (inactive), the GI50 [32] was 19.2 µM (inactive) and the GI50 [33] was 24.2 µM (inactive). The GI50 [34] was 20.8 µM (inactive), the GI50 [35] was 25.8 µM (inactive) and the GI50 [36] was 23.3 µM (inactive). The GI50 [37] was > 100 µM (inactive), the GI50 [38] was 32.3 µM (inactive) and the GI50 [39] was 21.9 µM (inactive). For the same molecule, the GI50 [40] was 19.7 µM (inactive), the GI50 [41] was 40.5 µM (inactive) and the GI50 [42] was 66.4 µM. The GI50 [43] was 53.1 µM (inactive), the GI50 [44] was > 100 µM (inactive) and the GI50 [45] was > 100 µM (inactive). The GI50 [46] was 14.3 µM (inactive), the GI50 [47] was > 100 µM (inactive) and the GI50 [48] was 26.7 µM (inactive). The GI50 [49] was 20.9 µM (inactive), the GI50 [50] was > 100 µM (inactive) and the GI50 [51] was 32.1 µM (inactive). The GI50 [52] was 20.7 µM (inactive), the GI50 [53] was 30.6 µM (inactive) and the GI50 [54] was > 100 µM (inactive). For the same molecule, the GI50 [55] was 21.9 µM (inactive), the GI50 [56] was 27.8 µM (inactive) and the GI50 [57] was 22.2 µM (inactive). The GI50 [58] was 21 µM (inactive).

In the case of `COCC12CCC(OC)C34C5CC6(O)C(OC)CC(OC(C)=O)(C5C6OC(=O)c5ccccc5)C(C(OC)C13)C4N(C)C2` (stereo not drawn), the GI50 [1] is reported as > 100 µM (inactive), the GI50 [2] is reported as > 100 µM (inactive) and the GI50 [3] is reported as > 100 µM (inactive). For the same molecule, the GI50 [4] was > 100 µM (inactive), the GI50 [5] was > 100 µM (inactive) and the GI50 [6] was > 100 µM (inactive). For the same molecule, the GI50 [7] was > 100 µM (inactive), the GI50 [8] was > 100 µM (inactive) and the GI50 [9] was > 100 µM (inactive). For the same molecule, the GI50 [10] was > 100 µM (inactive), the GI50 [11] was > 100 µM (inactive) and the GI50 [12] was > 100 µM (inactive). For the same molecule, the GI50 [13] was > 100 µM (inactive), the GI50 [14] was > 100 µM (inactive) and the GI50 [16] was > 100 µM (inactive). The GI50 [17] was > 100 µM (inactive), the GI50 [18] was > 100 µM (inactive) and the GI50 [20] was > 100 µM (inactive). The GI50 [21] was > 100 µM (inactive), the GI50 [22] was 85.3 µM (inactive) and the GI50 [23] was > 100 µM (inactive). For the same molecule, the GI50 [24] was > 100 µM (inactive), the GI50 [25] was > 100 µM (inactive) and the GI50 [26] was > 100 µM (inactive). For the same molecule, the GI50 [27] was > 100 µM (inactive), the GI50 [28] was > 100 µM (inactive) and the GI50 [29] was > 100 µM (inactive). For the same molecule, the GI50 [30] was > 100 µM (inactive), the GI50 [31] was > 100 µM (inactive) and the GI50 [32] was > 100 µM (inactive). For the same molecule, the GI50 [33] was > 100 µM (inactive), the GI50 [34] was > 100 µM (inactive) and the GI50 [35] was > 100 µM (inactive). The GI50 [36] was > 100 µM (inactive), the GI50 [37] was > 100 µM (inactive) and the GI50 [38] was > 100 µM (inactive). For the same molecule, the GI50 [39] was > 100 µM (inactive), the GI50 [40] was > 100 µM (inactive) and the GI50 [41] was > 100 µM (inactive). The GI50 [42] was over 100 µM, the GI50 [43] was > 100 µM (inactive) and the GI50 [44] was > 100 µM (inactive). For the same molecule, the GI50 [45] was > 100 µM (inactive), the GI50 [46] was > 100 µM (inactive) and the GI50 [47] was 83.8 µM (inactive). For the same molecule, the GI50 [48] was > 100 µM (inactive), the GI50 [49] was > 100 µM (inactive) and the GI50 [50] was > 100 µM (inactive). For the same molecule, the GI50 [51] was > 100 µM (inactive), the GI50 [52] was > 100 µM (inactive) and the GI50 [53] was > 100 µM (inactive). The GI50 [54] was > 100 µM (inactive), the GI50 [55] was 43 µM (inactive) and the GI50 [59] was > 100 µM (inactive). The GI50 [56] was > 100 µM (inactive), the GI50 [57] was > 100 µM (inactive) and the GI50 [58] was > 100 µM (inactive).

For `C#C[C@]1(O)CC[C@H]2[C@@H]3CCC4=C/C(=N/OC(=O)c5cccc6cc7ccccc7nc56)CC[C@@H]4[C@H]3CC[C@@]21CC`, the GI50 [1] was > 100 µM (inactive), the GI50 [2] was > 100 µM (inactive) and the GI50 [3] was > 100 µM (inactive). For the same molecule, the GI50 [4] was > 100 µM (inactive), the GI50 [5] was > 100 µM (inactive) and the GI50 [8] was > 100 µM (inactive). For the same molecule, the GI50 [9] was > 100 µM (inactive), the GI50 [10] was > 100 µM (inactive) and the GI50 [11] was > 100 µM (inactive). The GI50 [12] was > 100 µM (inactive), the GI50 [13] was 52.2 µM (inactive) and the GI50 [14] was > 100 µM (inactive). The GI50 [15] was > 100 µM (inactive), the GI50 [16] was > 100 µM (inactive) and the GI50 [18] was > 100 µM (inactive). For the same molecule, the GI50 [19] was > 100 µM (inactive), the GI50 [20] was > 100 µM (inactive) and the GI50 [21] was > 100 µM (inactive). For the same molecule, the GI50 [22] was 44.4 µM (inactive), the GI50 [23] was > 100 µM (inactive) and the GI50 [24] was > 100 µM (inactive). The GI50 [25] was > 100 µM (inactive), the GI50 [26] was 33.8 µM (inactive) and the GI50 [27] was > 100 µM (inactive). For the same molecule, the GI50 [28] was > 100 µM (inactive), the GI50 [29] was > 100 µM (inactive) and the GI50 [30] was > 100 µM (inactive). For the same molecule, the GI50 [31] was > 100 µM (inactive), the GI50 [32] was > 100 µM (inactive) and the GI50 [33] was > 100 µM (inactive). The GI50 [34] was > 100 µM (inactive), the GI50 [35] was > 100 µM (inactive) and the GI50 [37] was > 100 µM (inactive). The GI50 [38] was > 100 µM (inactive), the GI50 [39] was > 100 µM (inactive) and the GI50 [40] was > 100 µM (inactive). The GI50 [41] was 76 µM (inactive), the GI50 [42] was over 100 µM and the GI50 [43] was > 100 µM (inactive). The GI50 [44] was > 100 µM (inactive), the GI50 [45] was > 100 µM (inactive) and the GI50 [46] was > 100 µM (inactive). For the same molecule, the GI50 [47] was > 100 µM (inactive), the GI50 [48] was > 100 µM (inactive) and the GI50 [50] was 49.7 µM (inactive). The GI50 [51] was > 100 µM (inactive), the GI50 [52] was > 100 µM (inactive) and the GI50 [53] was > 100 µM (inactive). The GI50 [54] was > 100 µM (inactive), the GI50 [55] was > 100 µM (inactive) and the GI50 [59] was > 100 µM (inactive). The GI50 [56] was > 100 µM (inactive) and the GI50 [58] was > 100 µM (inactive).
